Laboratory results from US10413505B1, “Pharmaceutical compositions and methods of using the same” (priority 2017, dated 2019).
Like-named read-outs stand apart in the source and are kept apart here.

Assays:
[1] = Example 1 single-dose plasma pharmacokinetics after intranasal administration; format: in vivo, human; conditions: single intranasal 160 mg cocaine HCl; for AUC(0-inf) / AUC(0-t) / Cmax / MRT / Tmax / Vd/F / half-life: human, inhaled or intranasal, 160 mg
Description: Single-dose plasma and urinary pharmacokinetics of the pharmaceutical composition following intranasal administration was characterized in this study. This was a single-dose study in 30 healthy volunteers. The objective of the study was to examine the systemic pharmacokinetics of the pharmaceutical composition following acute, topical intranasal administration.
A single dose of a pharmaceutical composition was administered to both nostrils using cottonoid pledgets. […] Each pledget absorbed approximately 1 mL of pharmaceutical composition (i.e., 40 mg cocaine hydrochloride). Two soaked pledgets were placed into each nasal cavity of the subject and against the anterior septum for 20 minutes; thus, a total dose of 160 mg of cocaine hydrochloride was administered.
Blood samples were collected pre-dose (30 minutes before pledget insertion), and 7.5, 15, 20, 30, 45, 60, 75, 90, and 105 minutes and 2, 3, 4, 6, 8, 10, and 12 hours from the start of application of the pharmaceutical composition.
The effect of gender on Cmax, Tmax, AUClast, AUCinf, and t1/2 was determined. The effects of age, body weight, and BMI on AUClast were determined.

[2] = Example 3 urinary pharmacokinetics, normal hepatic function vs hepatic impairment; format: in vivo, human; conditions: for Urine Recovery as % of Dose, Geomean / Urine Recovery as % of Dose, Mean: 0-32 h, single intranasal dose; for CL renal: both sexes, other: intranasal (drug-soaked pledgets in the nasal cavity), 160 mg; for CL renal / dose excreted: human, urine; for dose excreted: other: intranasal, read-out: 0-32 h urinary recovery of unchanged drug as percent of the administered dose
Description: Urine was collected prior to dosing and from 0-2, 2-4, 4-8, 8-12, 12-24, and 24-32 hours after beginning of dose application. […] Urinary pharmacokinetic parameters included total urinary recovery (μg), urinary recovery as a percentage of dose, and CLr.

[3] = normal hepatic function, single intranasal 160 mg cocaine HCl
[4] = subjects with hepatic impairment, 32 hours post administration

## COC(=O)[C@H]1[C@@H](OC(=O)c2ccccc2)C[C@@H]2CC[C@H]1N2C [Cocaine, cocaine, reference compound]
[1]; both sexes, plasma, healthy subjects, plasma, read-out: AUCinf (Geometric Mean)
  AUC(0-inf): 0.0503 µg·h/mL
[1]; both sexes, plasma, healthy subjects, plasma, read-out: AUCinf (Mean)
  AUC(0-inf): 0.0549 µg·h/mL
[1]; both sexes, plasma, healthy subjects, plasma, read-out: AUClast (Geometric Mean)
  AUC(0-t): 0.0342 µg·h/mL
[1]; both sexes, plasma, healthy subjects, plasma, read-out: AUClast (Mean)
  AUC(0-t): 0.0384 µg·h/mL
[1]; both sexes, plasma, healthy subjects, plasma, read-out: Cmax (Geometric Mean)
  Cmax: 0.0328 µg/mL
[1]; both sexes, plasma, healthy subjects, plasma, read-out: MRT (Geometric Mean)
  MRT: 90 min
[1]; both sexes, plasma, healthy subjects, plasma, read-out: MRT (Mean)
  MRT: 93.6 min
[1]; both sexes, plasma, healthy subjects, plasma, read-out: Tmax (Geometric Mean)
  Tmax: 22.4 min
[1]; both sexes, plasma, healthy subjects, plasma, read-out: Vd/F (Geometric Mean)
  Vd/F: 3680 L
[1]; both sexes, plasma, healthy subjects, plasma, read-out: Vd/F (Mean)
  Vd/F: 3880 L
[1]; female, plasma, Female healthy subjects, plasma, read-out: AUCinf (Geometric mean)
  AUC(0-inf): 0.0539 µg·h/mL
[1]; female, plasma, Female healthy subjects, plasma, read-out: AUCinf (Mean)
  AUC(0-inf): 0.0606 µg·h/mL
[1]; female, plasma, Female healthy subjects, plasma, read-out: AUCinf (Median)
  AUC(0-inf): 0.0576 µg·h/mL
[1]; female, plasma, Female healthy subjects, plasma, read-out: AUClast (Geometric mean)
  AUC(0-t): 0.0394 µg·h/mL
[1]; female, plasma, Female healthy subjects, plasma, read-out: AUClast (Mean)
  AUC(0-t): 0.0444 µg·h/mL
[1]; female, plasma, Female healthy subjects, plasma, read-out: AUClast (Median)
  AUC(0-t): 0.0324 µg·h/mL
[1]; female, plasma, Female healthy subjects, plasma, read-out: Cmax (Geometric mean)
  Cmax: 0.0355 µg/mL
[1]; female, plasma, Female healthy subjects, plasma, read-out: Cmax (Mean)
  Cmax: 0.039 µg/mL
[1]; female, plasma, Female healthy subjects, plasma, read-out: Cmax (Median)
  Cmax: 0.037 µg/mL
[1]; female, plasma, Female healthy subjects, plasma, read-out: Tmax (Geometric mean)
  Tmax: 23.1 min
[1]; female, plasma, Female healthy subjects, plasma, read-out: Tmax (Mean)
  Tmax: 26.9 min
[1]; female, plasma, Female healthy subjects, plasma, read-out: Tmax (Median)
  Tmax: 20 min
[1]; female, plasma, Female healthy subjects, plasma, read-out: t1/2 (Geometric mean) (converted)
  half-life: 56.5 min
[1]; female, plasma, Female healthy subjects, plasma, read-out: t1/2 (Mean) (converted)
  half-life: 60.6 min
[1]; female, plasma, Female healthy subjects, plasma, read-out: t1/2 (Median) (converted)
  half-life: 60.6 min
[1]; healthy subjects
  fraction of the 160 mg dose absorbed intact during the 20-minute exposure period (rough estimate, CL/F vs intravenous CL): ~4%
[1]; healthy subjects, plasma
  % EXTRAP (Geometric Mean): 17.7%
  % EXTRAP (Mean): 18.7%
  CL/F (Mean): 3,096 L/h
  Clast (Geometric mean): 0.00705 µg/mL
  Clast (Mean): 0.00718 µg/mL
  Tlast (Geometric mean): 2.31 h
  Tlast (Mean): 2.40 h
  Tmax (Mean): 26 min
  t1/2 (Geometric mean): 58.5 min
[1]; plasma, healthy subjects, plasma, read-out: Cmax (Mean)
  Cmax: 0.037 ± 0.0173 µg/mL
[1]; plasma, healthy subjects, plasma, read-out: Cmax (range across subjects)
  Cmax: 0.00793 to 0.0703 µg/mL
[1]; plasma, healthy subjects, plasma, read-out: Tmax (Mean)
  Tmax: 25.8 ± 20.4 min
[1]; plasma, healthy subjects, plasma, read-out: t1/2 (Mean) (converted)
  half-life: 62.4 ± 21 min
[1]; male, plasma, Male healthy subjects, plasma, read-out: AUCinf (Geometric mean)
  AUC(0-inf): 0.0457 µg·h/mL
[1]; male, plasma, Male healthy subjects, plasma, read-out: AUCinf (Mean)
  AUC(0-inf): 0.0472 µg·h/mL
[1]; male, plasma, Male healthy subjects, plasma, read-out: AUCinf (Median)
  AUC(0-inf): 0.0462 µg·h/mL
[1]; male, plasma, Male healthy subjects, plasma, read-out: AUClast (Geometric mean)
  AUC(0-t): 0.0291 µg·h/mL
[1]; male, plasma, Male healthy subjects, plasma, read-out: AUClast (Mean)
  AUC(0-t): 0.0315 µg·h/mL
[1]; male, plasma, Male healthy subjects, plasma, read-out: AUClast (Median)
  AUC(0-t): 0.0285 µg·h/mL
[1]; male, plasma, Male healthy subjects, plasma, read-out: Cmax (Geometric mean)
  Cmax: 0.03 µg/mL
[1]; male, plasma, Male healthy subjects, plasma, read-out: Cmax (Mean)
  Cmax: 0.0346 µg/mL
[1]; male, plasma, Male healthy subjects, plasma, read-out: Cmax (Median)
  Cmax: 0.0316 µg/mL
[1]; male, plasma, Male healthy subjects, plasma, read-out: Tmax (Geometric mean)
  Tmax: 21.7 min
[1]; male, plasma, Male healthy subjects, plasma, read-out: Tmax (Mean)
  Tmax: 25 min
[1]; male, plasma, Male healthy subjects, plasma, read-out: Tmax (Median)
  Tmax: 20 min
[1]; male, plasma, Male healthy subjects, plasma, read-out: t1/2 (Geometric mean) (converted)
  half-life: 60.6 min
[1]; male, plasma, Male healthy subjects, plasma, read-out: t1/2 (Mean) (converted)
  half-life: 63.6 min
[1]; male, plasma, Male healthy subjects, plasma, read-out: t1/2 (Median) (converted)
  half-life: 58 min
[2]; Impaired hepatic function
  Urine Recovery as % of Dose, Geomean: 0.071 % of Dose
  Urine Recovery as % of Dose, Mean: 0.143 % of Dose
[2]; Normal hepatic function
  Urine Recovery as % of Dose, Geomean: 0.057 % of Dose
  Urine Recovery as % of Dose, Mean: 0.072 % of Dose
[2]; Impaired hepatic function, Table 26, read-out: CLr Geomean (converted)
  CL renal: 7.8 mL/min
[2]; Impaired hepatic function, Table 26, read-out: CLr Mean (converted)
  CL renal: 16.6 mL/min
[2]; Normal hepatic function, Table 26, read-out: CLr Geomean (converted)
  CL renal: 19.5 mL/min
[2]; Normal hepatic function, Table 26, read-out: CLr Mean (converted)
  CL renal: 29.8 mL/min
[2]; hepatically impaired patients, 32 hours from administration, read-out: renal clearance, range observed
  CL renal: 1.27 to 32 mL/min
[2]; subjects with hepatic impairment, Table 30, read-out: Renal Clearance, geometric mean (converted)
  CL renal: 7.79 mL/min
[2]; subjects with hepatic impairment, Table 30, read-out: Renal Clearance, mean (converted)
  CL renal: 16.6 mL/min
[2]; subjects with hepatic impairment, Table 30, read-out: Renal Clearance, median (converted)
  CL renal: 15.6 mL/min
[2]; subjects with hepatic impairment, read-out: Renal Clearance, geometric mean (converted)
  CL renal: 7.79 mL/min
[2]; subjects with hepatic impairment, read-out: Renal Clearance, mean (converted)
  CL renal: 16.6 mL/min
[2]; subjects with hepatic impairment, read-out: Renal Clearance, median (converted)
  CL renal: 15.6 mL/min
[2]; subjects with normal hepatic function, Table 29, read-out: Renal Clearance, geometric mean (converted)
  CL renal: 19.5 mL/min
[2]; subjects with normal hepatic function, Table 29, read-out: Renal Clearance, mean (converted)
  CL renal: 29.8 mL/min
[2]; subjects with normal hepatic function, Table 29, read-out: Renal Clearance, median (converted)
  CL renal: 22 mL/min
[2]; subjects with normal hepatic function, read-out: Renal Clearance, geometric mean (converted)
  CL renal: 19.5 mL/min
[2]; subjects with normal hepatic function, read-out: Renal Clearance, mean (converted)
  CL renal: 29.8 mL/min
[2]; subjects with normal hepatic function, read-out: Renal Clearance, median (converted)
  CL renal: 22 mL/min
[2]; hepatic impairment
  dose excreted: 0.071%
[2]; normal hepatic function
  dose excreted: 0.057%
[2]; [3]
  0-32 h Urinary Recovery (geometric mean): 81.5 µg
  0-32 h Urinary Recovery (mean): 102.25 µg
  0-32 h Urinary Recovery (median): 108.1 µg
[2]; [4]
  0-32 h Urinary Recovery (geometric mean): 101.4 µg
  0-32 h Urinary Recovery (mean): 204 µg
